These results are taken from publication PMC7751820, “Synthesis, cytotoxic assessment, and molecular docking studies of 2,6-diaryl-substituted pyridine and 3,4- dihydropyrimidine-2(1H)-one scaffolds” (Turkish Journal of Chemistry, 2020).

The test system of data set [1] is MCF-7 cell line (human breast adenocarcinoma). The data set can be described thus: MTT cytotoxicity assay, MCF-7 cells. The data set is classed as cell-based. Particulars: for IC 50 (μg/mL) MCF-7 / IC50: MTT; for IC50: Homo sapiens, read-out: IC 50 (μg/mL) MCF-7; for effect on cell viability in MCF-7 cells: different concentrations, Figure 6, 24 h. On the procedure: (§1) FBS, PBS, trypsin, penicillin, streptomycin, DMSO, 3-[4,5-dimethyl thiazol-2-yl]-2,5-diphenyltetrazoliumbromide (MTT), Triton X-100, and RPMI-1640 medium supplemented with 10% heat inactivated FBS were purchased from Sigma-Aldrich. The AGS, HEK293, and MCF7 cell lines were purchased from the National Cell Bank of Iran, Pasteur Institute of Iran, Tehran, Iran.
(§2) In this research, the effects of synthesized compounds on the viability of MCF-7, AGS, and HEK cells were evaluated at various concentrations (0.39–200 μg/mL) utilizing 3-(4,5-dimethylthiazol-2-yl)-2,5-diphenyltetrazolium bromide (MTT) assay. After thawing, the cells were cultured in RPMI 1640 medium containing 10% FBS, penicillin (100 U/mL), and streptomycin ([…]) at 37 °C in a humidified 5% CO2 incubator. The cells were seeded in a 96-well plate at a density of 5000 cells per well (the cells were stained with trypan blue and counted with a hemocytometer). The cells were incubated overnight at 37 °C before cell viability testing. A stock suspension of each of the synthesized compounds at 50 mg/mL in distilled water was prepared. After that, fresh suspensions of different concentrations of the synthesized compounds (2-fold serial dilutions from 0.39 to 200 μg/mL) were made using serial dilutions of the stock suspensions of the synthesized compounds in the RPMI 1640 medium immediately before use. Next, 200 μL of suspension (different concentrations of synthesized compounds) was added to each well of the micropentaplicates. The cells were incubated for 24 and 48 h under the same conditions. Wells without any synthesized compounds served as a negative control. The experiments were performed in pentaplicate for each concentration. To assess cell survival, 100 μL of MTT solution (2 mg/mL in PBS) was added to each well and incubated for 3 h at 37 °C to produce insoluble formazan. Next, 100 μL of DMSO was added to dissolve the formazan crystals, and the absorbance was measured using an Infinite M200 ELISA plate reader (Tecan, Männedorf, Switzerland) at 570 nm, with 630 nm as a reference wave length. The percentage of cell viability was calculated via the formula (A test /A control ) ×100, in which A test is the average absorbance of the treated cells and A control is the average absorbance of the negative control.
(§3) Cytotoxicity assessment of the cell lines were performed in pentaplicate, and the results were computed as mean ±SD. The experimental results were analyzed using one-way ANOVA analysis in SPSS 16.0 for Windows (SPSS Inc., Chicago, IL, USA) and P <0.05 was considered significant. The IC 50 values were calculated by nonlinear regression analysis using Finney probit analysis in SPSS.

Data set [2] has as its system HEK293 cells (human embryonic kidney). The data set is described as follows: MTT cytotoxicity assay, HEK293 normal cells. The data set is classed as cell-based. Conditions: for IC50: Homo sapiens, read-out: IC 50 (μg/mL) HEK293; for cytotoxicity against HEK293 cells compared to the other analogs: pyridine derivatives, Figure 6, 24 h. The protocol:
as §1, §2, §3

The subject of data set [3] is AGS cells (gastric adenocarcinoma). The data set is described as follows: MTT cytotoxicity assay, AGS cells. The format is cell-based, human. Conditions: for IC50: Homo sapiens, AGS cells, MTT. On the procedure: as §1
In this research, the effects of synthesized compounds on the viability of MCF-7, AGS, and HEK cells were evaluated at various concentrations (0.39–200 μg/mL) utilizing 3-(4,5-dimethylthiazol-2-yl)-2,5-diphenyltetrazolium bromide (MTT) assay. After thawing, the cells were cultured in RPMI 1640 medium containing 10% FBS, penicillin (100 U/mL), and streptomycin ([…]) at 37 °C in a humidified 5% CO2 incubator. The cells were seeded in a 96-well plate at a density of 5000 cells per well (the cells were stained with trypan blue and counted with a hemocytometer). The cells were incubated overnight at 37 °C before cell viability testing. A stock suspension of each of the synthesized compounds at 50 mg/mL in distilled water was prepared. […] Next, 100 μL of DMSO was added to dissolve the formazan crystals, and the absorbance was measured using an Infinite M200 ELISA plate reader (Tecan, Männedorf, Switzerland) at 570 nm, with 630 nm as a reference wave length. The percentage of cell viability was calculated via the formula (A test /A control ) ×100, in which A test is the average absorbance of the treated cells and A control is the average absorbance of the negative control.
as §3

Setting [4] is: MCF-7 cells, Table 7, 24 h per Figure 6.
[5] abbreviates: HEK293 cells, MTT, Table 7, 24 h per Figure 6.
[6] abbreviates: MCF7, 24 h, MCF-7 cells, Table 7, 24 h per Figure 6.

Molecules are shown by their SMILES. Values after ≈ are worked out from the molar mass of the structure shown. Where two headings read alike, the source gives them in different places.

Turning to `CCOC(=O)C1=C(C)NC(=O)NC1c1cccs1` (stereo not drawn) [4m], in data set [1] (setting [4]), the “IC 50 (μg/mL) MCF-7” value was 128.00 µg/mL (≈ 481 µM). Further, the “IC 50 (μg/mL) HEK293” value in data set [2] (setting [5]) worked out at 146.25 µg/mL (≈ 549 µM).

With `CCOC(=O)C1=C(C)NC(=O)NC1c1c(Cl)cccc1Cl` (stereo not drawn) [4r], the IC50 in data set [1] (MCF7, MCF-7 cells, Table 6 (DHPMs 4j, 4r)) was 0.17 µg/mL (≈ 0.516 µM); in data set [3] (24 h, read-out: IC 50 (μg/mL) AGS (24 h)) it was 30 µg/mL (≈ 91.1 µM); in data set [3] (48 h, read-out: IC 50 (μg/mL) AGS (48 h)) it was 4.97 µg/mL (≈ 15.1 µM); in data set [2] (HEK293) it was greater than 200 µg/mL. Further, the “death of AGS cells” value in data set [3] (after treatment for 24 and 48 h, different concentrations (Figure 5)) is reported as no less than 50%.

Regarding `N#Cc1c(-c2cccc(Cl)c2)cc(-c2ccccc2)nc1N` [5c, 2-Amino-4-(3-chlorophenyl)-6-phenylnicotinonitrile], the melting point was in the range of 168 to 170 °C. Moreover, in data set [1] (setting [6]), the IC50 was found to be 307 µg/mL (≈ 1000 µM). For the same molecule, the IC50 in data set [2] (setting [5]) is greater than 1000 µg/mL.

Take `N#Cc1c(-c2ccccc2F)cc(-c2ccccc2)nc1N` [5g]: the IC50 in data set [1] (setting [6]) is 71.9 µg/mL (≈ 249 µM); in data set [2] (setting [5]), 950 µg/mL (≈ 3280 µM). Also, the “effect on cell viability in MCF-7 cells” value in data set [1] was “considerable decrease in cell viability”. Further, the “cytotoxicity against HEK293 cells compared to the other analogs” value in data set [2] is listed as “less cytotoxic”.

For `N#Cc1c(-c2c(Cl)cccc2Cl)cc(-c2ccccc2)nc1N` [5l, 2-Amino-4-(2,6-dichlorophenyl)-6-phenylnicotinonitrile], the melting point lay in the range of 174 to 176 °C.

For `N#Cc1c(-c2ccc(Cl)cc2Cl)cc(-c2ccccc2)nc1N` [5m, 2-Amino-4-(2,4-dichlorophenyl)-6-phenylnicotinonitrile], the melting point lay within 179 to 181 °C. The IC50 in data set [1] (setting [6]) stood at 82 µg/mL (≈ 241 µM). The “IC 50 (μg/mL) MCF-7” value in data set [1] (setting [4]) is 82.90 µg/mL (≈ 244 µM). Also, in data set [1], the “effect on cell viability in MCF-7 cells” value was “considerable decrease in cell viability”. For the same molecule, the IC50 in data set [2] (setting [5]) was determined as 259 µg/mL (≈ 760 µM). Moreover, the “cytotoxicity against HEK293 cells compared to the other analogs” value in data set [2] is reported as “less cytotoxic”.
